Assay results taken from ChEMBL document CHEMBL3885881, “DrugMatrix”.

Species on record: Rattus norvegicus
Experiment: DrugMatrix - Regimen: Daily Repeat
Format: toxicity, organism-based, Sprague-Dawley
Set-up: regimen Daily Repeat, gender Male, age 6-8 weeks
Conditions: in vivo, po, 10 mg/kg, route oral GAVAGE, dose level Low, vehicle .5 % CMC; for ABSOLUTE BASOPHIL / ABSOLUTE EOSINOPHIL / ABSOLUTE LYMPHOCYTE / ABSOLUTE MONOCYTE / ABSOLUTE SEGMENTED NEUTROPHIL / BASOPHIL / EOSINOPHIL / ERYTHROCYTE COUNT / HEMATOCRIT / HEMOGLOBIN / LEUKOCYTE COUNT / LYMPHOCYTE / MEAN CORPUSCULAR HEMOGLOBIN / MEAN CORPUSCULAR HEMOGLOBIN CONCENTRATION / MEAN CORPUSCULAR VOLUME / MONOCYTE / NEUTROPHIL / NUCLEATED RED BLOOD CELLS / PLATELET COUNT: tissue Blood; for ALANINE AMINOTRANSFERASE / ALBUMIN / ALKALINE PHOSPHATASE / ASPARTATE AMINOTRANSFERASE / BLOOD UREA NITROGEN / CARBON DIOXIDE / CHLORIDE / CHOLESTEROL / CREATINE PHOSPHOKINASE / CREATININE / GLUCOSE / LACTATE DEHYDROGENASE / LIPASE / PHOSPHORUS / POTASSIUM / SODIUM / TOTAL BILIRUBIN / TOTAL PROTEIN / URIC ACID: tissue Plasma

In the case of `Fc1ccc(C(c2ccc(F)cc2)N2CCN(C/C=C/c3ccccc3)CC2)cc1` [FLUNARIZINE], the “ABSOLUTE BASOPHIL” value (72 h, time 3 day) is reported as 0 CELLS/uL, the “ABSOLUTE EOSINOPHIL” value (72 h, time 3 day) is reported as 0 CELLS/uL and the “ABSOLUTE LYMPHOCYTE” value (72 h, time 3 day) is reported as 15150 CELLS/uL. The “ABSOLUTE MONOCYTE” value (72 h, time 3 day) was 74.33 CELLS/uL, the “ABSOLUTE SEGMENTED NEUTROPHIL” value (72 h, time 3 day) was 1309 CELLS/uL and the BASOPHIL (72 h, time 3 day) was 0%. For the same compound, the EOSINOPHIL (72 h, time 3 day) was 0%, the “ERYTHROCYTE COUNT” value (72 h, time 3 day) was 6.09 x10E6/uL and the HEMATOCRIT (72 h, time 3 day) was 37.17%. For the same compound, the HEMOGLOBIN (72 h, time 3 day) was 14.73 G/DL, the “LEUKOCYTE COUNT” value (72 h, time 3 day) was 16.53 x10E3/uL and the LYMPHOCYTE (72 h, time 3 day) was 91.33%. For the same compound, the “MEAN CORPUSCULAR HEMOGLOBIN” value (72 h, time 3 day) was 24.2 pg, the “MEAN CORPUSCULAR HEMOGLOBIN CONCENTRATION” value (72 h, time 3 day) was 39.67 G/DL and the “MEAN CORPUSCULAR VOLUME” value (72 h, time 3 day) was 61.03 fL. The MONOCYTE (72 h, time 3 day) was 0.33%, the NEUTROPHIL (72 h, time 3 day) was 8.33% and the “NUCLEATED RED BLOOD CELLS” value (72 h, time 3 day) was 0.33 /100WBC. For the same compound, the “PLATELET COUNT” value (72 h, time 3 day) was 1291 x10E3/uL, the “ALANINE AMINOTRANSFERASE” value (72 h, time 3 day) was 42.67 u/L and the ALBUMIN (72 h, time 3 day) was 4.7 G/DL. For the same compound, the “ALKALINE PHOSPHATASE” value (72 h, time 3 day) was 347.33 u/L, the “ASPARTATE AMINOTRANSFERASE” value (72 h, time 3 day) was 90.33 u/L and the “BLOOD UREA NITROGEN” value (72 h, time 3 day) was 18 mg/dL. The “CARBON DIOXIDE” value (72 h, time 3 day) was 20 mmol/L, the CHLORIDE (72 h, time 3 day) was 101 MEQ/L and the CHOLESTEROL (72 h, time 3 day) was 87.67 mg/dL. For the same compound, the “CREATINE PHOSPHOKINASE” value (72 h, time 3 day) was 406.67 u/L, the CREATININE (72 h, time 3 day) was 0.23 mg/dL and the GLUCOSE (72 h, time 3 day) was 149 mg/dL. The “LACTATE DEHYDROGENASE” value (72 h, time 3 day) was 371.67 u/L, the LIPASE (72 h, time 3 day) was 9 u/L and the PHOSPHORUS (72 h, time 3 day) was 12.27 mg/dL. The POTASSIUM (72 h, time 3 day) was 6.75 MEQ/L, the SODIUM (72 h, time 3 day) was 143.6 MEQ/L and the “TOTAL BILIRUBIN” value (72 h, time 3 day) was 0.2 mg/dL. The “TOTAL PROTEIN” value (72 h, time 3 day) was 6.57 G/DL, the “URIC ACID” value (72 h, time 3 day) was 1.67 mg/dL and the “ABSOLUTE BASOPHIL” value (120 h, time 5 day) was 0 CELLS/uL. The “ABSOLUTE EOSINOPHIL” value (120 h, time 5 day) was 122 CELLS/uL, the “ABSOLUTE LYMPHOCYTE” value (120 h, time 5 day) was 14703 CELLS/uL and the “ABSOLUTE MONOCYTE” value (120 h, time 5 day) was 297.33 CELLS/uL. The “ABSOLUTE SEGMENTED NEUTROPHIL” value (120 h, time 5 day) was 711 CELLS/uL, the BASOPHIL (120 h, time 5 day) was 0% and the EOSINOPHIL (120 h, time 5 day) was 0.67%. For the same compound, the “ERYTHROCYTE COUNT” value (120 h, time 5 day) was 5.61 x10E6/uL, the HEMATOCRIT (120 h, time 5 day) was 36.03% and the HEMOGLOBIN (120 h, time 5 day) was 14.1 G/DL. The “LEUKOCYTE COUNT” value (120 h, time 5 day) was 15.83 x10E3/uL, the LYMPHOCYTE (120 h, time 5 day) was 93% and the “MEAN CORPUSCULAR HEMOGLOBIN” value (120 h, time 5 day) was 25.13 pg. The “MEAN CORPUSCULAR HEMOGLOBIN CONCENTRATION” value (120 h, time 5 day) was 39.17 G/DL, the “MEAN CORPUSCULAR VOLUME” value (120 h, time 5 day) was 64.2 fL and the MONOCYTE (120 h, time 5 day) was 2%. The NEUTROPHIL (120 h, time 5 day) was 4.33%, the “NUCLEATED RED BLOOD CELLS” value (120 h, time 5 day) was 0 /100WBC and the “PLATELET COUNT” value (120 h, time 5 day) was 1316 x10E3/uL. For the same compound, the “ALANINE AMINOTRANSFERASE” value (120 h, time 5 day) was 52 u/L, the ALBUMIN (120 h, time 5 day) was 4.43 G/DL and the “ALKALINE PHOSPHATASE” value (120 h, time 5 day) was 419 u/L. The “ASPARTATE AMINOTRANSFERASE” value (120 h, time 5 day) was 84.33 u/L, the “BLOOD UREA NITROGEN” value (120 h, time 5 day) was 14.67 mg/dL and the “CARBON DIOXIDE” value (120 h, time 5 day) was 24 mmol/L. The CHLORIDE (120 h, time 5 day) was 103.67 MEQ/L, the CHOLESTEROL (120 h, time 5 day) was 74.33 mg/dL and the “CREATINE PHOSPHOKINASE” value (120 h, time 5 day) was 286 u/L. The CREATININE (120 h, time 5 day) was 0.11 mg/dL, the GLUCOSE (120 h, time 5 day) was 150.67 mg/dL and the “LACTATE DEHYDROGENASE” value (120 h, time 5 day) was 187.33 u/L. The LIPASE (120 h, time 5 day) was 8.67 u/L, the PHOSPHORUS (120 h, time 5 day) was 14.07 mg/dL and the POTASSIUM (120 h, time 5 day) was 6.62 MEQ/L. For the same compound, the SODIUM (120 h, time 5 day) was 147.27 MEQ/L, the “TOTAL BILIRUBIN” value (120 h, time 5 day) was 0.2 mg/dL and the “TOTAL PROTEIN” value (120 h, time 5 day) was 6.03 G/DL. The “URIC ACID” value (120 h, time 5 day) was 1.67 mg/dL.
